The record followed here is patent US20190008848A1, “IDENTIFICATION OF ADDITIONAL ANTI-PERSISTER ACTIVITY AGAINST BORRELIA BURGDORFERI FROM AN FDA DRUG LIBRARY” (THE JOHNS HOPKINS UNIVERSITY, priority 2015, published 2019).

This data set deals with stationary phase B. burgdorferi. Nature of the data set: SYBR Green I/PI viability assay (drug library screen, plate reader). The settings on record: for viability at 50 µM: Borreliella burgdorferi, 168 h; for activity against stationary phase B. burgdorferi (in words): screen at 50 μM. Here is the method: Borrelia burgdorferi strain B31 (ATCC35210) was received from the […] (Manassas, Va., USA) and was grown in BSK-H medium (HiMedia Laboratories, Mumbai, India) and 6% rabbit serum (Sigma Aldrich, St. Louis, Mo., USA). The culture was filtered and sterilized using a […] and incubated in capped sterile 50 mL conical tubes (BD Biosciences, CA, USA) at 33° C. for 7 days without antibiotics until the culture reached stationary phase.
The cultures were examined using a Nikon Eclipse E800 microscope with differential interference contrast and epifluorescent illumination. The pictures were captured using a SPOT slider color camera. A SYBR Green I/PI assay was used to assess the viability of the bacterial sample using the ratio of live to dead B. burgdorferi (measured with green and red fluorescence, respectively) as measured by a plate reader.
Briefly, prediluted drug stock (10 μL) was added to 7 day old stationary phase B. burgdorferi culture (90 μL) to achieve a 50 μM final drug concentration per well. The plates were then incubated at 33° C. for 7 days at which point the SYBR/PI rapid viability assay was performed in a fluorescence plate reader to obtain the green-red fluorescence ratio.

Where [1] appears, read: read-out: Residual viable cells (SYBR/PI), Table 3, drugs 50 μM, 7-day old stationary phase cells treated for 7 days.
The mark [2] stands for this setting: Table 3, drugs 50 μM, 7-day old stationary phase cells treated for 7 days.
Where [3] appears, read: read-out: Residual viable cells (SYBR/PI).
Where [4] appears, read: read-out: Residual viable cells (SYBR Green/PI), Table 1, drugs 50 μM, 7 day old stationary phase cells treated for 7 days.

Structures are written as SMILES. Where a name gives a salt, the structure may show the parent alone. Read-outs that look alike come from different tables or passages of the source.

In the case of `Cc1cn([C@H]2C=C[C@@H](CO)O2)c(=O)[nH]c1=O` [2′,3′-Didehydro-3′-Deoxythymidine], the viability at 50 µM under setting [1] was 65%.

On to `O=C(Nc1ccc(Cl)cc1)Nc1ccc(Cl)c(Cl)c1` [3,4,4′-Trichlorocarbanilide], for which the “Residual viable cells (SYBR/PI)” value under setting [2] is recorded as 45%.

Turning to `Nc1ccc(C(=O)O)c(O)c1` [4-Aminosalicylic acid], the viability at 50 µM under setting [3] was 66%.

Regarding `NC12CC3CC(CC(C3)C1)C2` [Amantadine hydrochloride], the “Residual viable cells (SYBR/PI)” value (Borrelia burgdorferi, 7 days, 50 μM) is recorded as 69%. Also, the viability at 50 µM under setting [1] was 65%.

On to `NCC[C@H](O)C(=O)N[C@@H]1C[C@H](N)[C@@H](O[C@H]2O[C@H](CN)[C@@H](O)[C@H](O)[C@H]2O)[C@H](O)[C@H]1O[C@H]1O[C@H](CO)[C@@H](O)[C@H](N)[C@H]1O` [Amikacin], for which the viability at 50 µM under setting [1] worked out at 57%.

In the case of `CC1(C)S[C@@H]2[C@H](NC(=O)[C@H](N)c3ccccc3)C(=O)N2[C@H]1C(=O)O` [Ampicillin], under setting [1], the viability at 50 µM is 64%.

With `COc1ccc(C[C@H]2NC[C@H](O)[C@H]2OC(C)=O)cc1` [Anisomycin], under setting [2], the “Residual viable cells (SYBR/PI)” value is given as 68%.

On to `C[C@H]1[C@H](OC(=O)CCC(=O)O)O[C@@H]2O[C@@]3(C)CC[C@H]4[C@H](C)CC[C@@H]1[C@@]24OO3` [Artesunate], for which the viability at 50 µM under setting [1] was found to be 58%.

Regarding `O=C(Cn1ccnc1[N+](=O)[O-])NCc1ccccc1` [Benznidazole], the viability at 50 µM under setting [1] stood at 53%.

Consider `O=C(Nc1ccc(C(=O)O)c(O)c1)c1ccccc1` [Benzoylpas, 4-Benzamido salicylic acid, calcium salt], for which the viability at 50 µM amounted to 55% under setting [4] and 55% under setting [1].

Regarding `O=C(O)CCNC(=O)c1ccccc1` [Betamipron (n-benzoyl-b-alanine), n-benzoyl-b-alanine], the viability at 50 µM under setting [1] amounted to 68%.

In the case of `S=C=Nc1ccc(N=C=S)cc1` [Bitoscanate], the viability at 50 µM (read-out: Residual viable cells (SYBR Green/PI)) stood at 46% and the viability at 50 µM under setting [3] came out at 46%.

Consider `Clc1ccc(CCC(Cn2ccnc2)Sc2c(Cl)cccc2Cl)cc1` (centres unmarked) [Butoconazole nitrate], for which the viability at 50 µM under setting [1] amounted to 74%.

Consider `CCCCCl` [Butyl chloride (1-Chlorobutane), 1-Chlorobutane], for which the viability at 50 µM under setting [3] turned out to be 41%. Moreover, the “activity against stationary phase B. burgdorferi (in words)” value (“activity” below) (7 days) is recorded as “very high activities”.

In the case of `COC(=O)N/N=C/c1c[n+]([O-])c2ccccc2[n+]1[O-]` [Carbadox], the viability at 50 µM under setting [1] turned out to be 69%.

In the case of `NS(=O)(=O)c1ccc(C(=O)O)cc1` [Carzenide (4-Carboxybenzenesulfonamide), 4-Carboxybenzenesulfonamide], under setting [1], the viability at 50 µM is 59%.

Regarding `NC(=O)c1cc[n+](CC2=C(C(=O)O)N3C(=O)[C@@H](NC(=O)[C@@H](c4ccccc4)S(=O)(=O)[O-])[C@H]3SC2)cc1` [Cefsulodin], the viability at 50 µM under setting [4] came to 60% and the viability at 50 µM under setting [1] came to 60%.

On to `CC(=O)OCC1=C(C(=O)O)N2C(=O)[C@@H](NC(=O)CCC[C@@H](N)C(=O)O)[C@H]2SC1` [Cephalosporin C], for which, under setting [2], the “Residual viable cells (SYBR/PI)” value is 58%.

In the case of `Cc1cc(C2CCCCC2)n(O)c(=O)c1` [Ciclopirox olamine], the viability at 50 µM under setting [1] is 66%.

`NC1CCN(c2c(F)cc3c(=O)c(C(=O)O)cn(C4CC4)c3c2Cl)C1` (centres unmarked) [Clinafloxacin]: the viability at 50 µM under setting [1] was 60%.

`CC(C)(C)CC(C)(C)c1ccc(O)c(Cc2ccc(Cl)cc2Cl)c1` [Clofoctol]: under setting [1], the viability at 50 µM worked out at 73%.

As for `Cc1nc(C)c(Cl)c(O)c1Cl` [Clopidol], the viability at 50 µM under setting [1] came out at 57%.

As for `Nc1cc(C(Cl)=C(Cl)Cl)c(S(N)(=O)=O)cc1S(N)(=O)=O` [Clorsulon], the viability at 50 µM under setting [1] was determined as 71%.

In the case of `Cc1cc(C(C#N)c2ccc(Cl)cc2)c(Cl)cc1NC(=O)c1cc(I)cc(I)c1O` (centres unmarked) [Closantel], the viability at 50 µM under setting [1] turned out to be 56%.

On to `Clc1ccccc1C(c1ccccc1)(c1ccccc1)n1ccnc1` [Clotrimazole], for which, under setting [1], the viability at 50 µM came to 68%.

For the compound `Oc1ccc(Cl)c2cccnc12` [Cloxyquin (5-chloro-8-hydroxy-quinoline), 5-chloro-8-hydroxy-quinoline], the viability at 50 µM under setting [1] stood at 60%.

For `N#CCC(=O)NN` [Cyacetacide], the viability at 50 µM runs as follows: under setting [4], 61%; under setting [1], 61%.

As for `NC[C@@H]1CC[C@@H](N)[C@@H](O[C@H]2[C@H](O)[C@@H](O[C@H]3O[C@H](CO)[C@@H](O)[C@H](N)[C@H]3O)[C@H](N)C[C@@H]2N)O1` [Dibekacin], the viability at 50 µM under setting [1] was determined as 70%.

`N#CC(c1ccc(Cl)cc1)c1c(Cl)cc(-n2ncc(=O)[nH]c2=O)cc1Cl` (centres unmarked) [Diclazuril]: the viability at 50 µM under setting [1] turned out to be 63%.

With `O=c1[nH]cnc2c1ncn2[C@H]1CC[C@@H](CO)O1` [Didanosine, 2′-3′-dideoxyinosine], the viability at 50 µM reads like this: under setting [4], 61%; under setting [1], 61%.

Turning to `CCCCCCCCCCCCCCCCCCCCCCO` [Docosanol], the viability at 50 µM under setting [1] was determined as 55%.

With `O=C1Nc2ccc(Cl)cc2[C@@](C#CC2CC2)(C(F)(F)F)O1` [Efavirenz], the viability at 50 µM under setting [1] turned out to be 60%.

In the case of `CCOc1ccc2nc3cc(N)ccc3c(N)c2c1` [Ethacridine lactate], the viability at 50 µM was determined as 48% under setting [4] and 48% under setting [1].

For the compound `CC(=O)OCC(CCn1cnc2cnc(N)nc21)COC(C)=O` [Famciclovir], the viability at 50 µM under setting [1] was 68%.

Take `CN1CCN(c2c(F)cc3c(=O)c(C(=O)O)cn(CCF)c3c2F)CC1` [Fleroxacin]: the viability at 50 µM under setting [1] is 73%.

Regarding `CS(=O)(=O)c1ccc([C@@H](O)[C@@H](CF)NC(=O)C(Cl)Cl)cc1` [Florfenicol], the viability at 50 µM under setting [1] stood at 53%.

`O=c1[nH]c(=O)n([C@H]2C[C@H](O)[C@@H](CO)O2)cc1F` [Floxuridine, 5-fluorodeoxyuridine]: the viability at 50 µM runs as follows: under setting [4], 61%; under setting [1], 61%.

With `COC(=O)Nc1nc2cc(C(=O)c3ccc(F)cc3)ccc2[nH]1` [Flubendazole], the viability at 50 µM is 54% under setting [4] and 54% under setting [1].

As to `Nc1nc(O)c2ncn(COC(CO)CO)c2n1` [Ganciclovir], the viability at 50 µM was determined as 53% under setting [4] and 53% under setting [1].

With `COC1=CC(=O)C[C@@H](C)[C@]12Oc1c(Cl)c(OC)cc(OC)c1C2=O` [Griseofulvin], the viability at 50 µM is, setting by setting: under setting [4], 63%; under setting [1], 63%.

For `CCN(CC)CCNc1ccc(CO)c2sc3ccccc3c(=O)c12` [Hycanthone], the viability at 50 µM under setting [4] is 45% and the viability at 50 µM under setting [1] stood at 45%.

Turning to `CC(C)Cn1cnc2c(N)nc3ccccc3c21` [Imiquimod], the viability at 50 µM under setting [3] stood at 64%.

Consider `Nc1ccn([C@@H]2CS[C@H](CO)O2)c(=O)n1` [Lamivudine], for which the viability at 50 µM under setting [4] worked out at 58% and the viability at 50 µM under setting [1] is 58%.

As to `COC(=O)c1ccc(O)c2nc3c(C=O)c(O)cc(O)c3nc12` [Lomofungin], under setting [1], the viability at 50 µM turned out to be 58%.

Take `C=N[C@@H](C(=O)N[C@@H]1C(=O)N2[C@@H]1SC(C)(C)[C@@H]2C(=O)O)c1ccccc1` [Metampicillin]: the viability at 50 µM under setting [1] was determined as 57%.

Regarding `COP(=O)(OC)C(O)C(Cl)(Cl)Cl` (centres unmarked) [Metrifonate], under setting [3], the viability at 50 µM was determined as 51%.

Regarding `CCC(=O)O[C@@H]1CC(=O)O[C@H](C)C/C=C/C=C/[C@H](O)[C@H](C)C[C@H](CC=O)[C@H](O[C@@H]2O[C@H](C)[C@@H](O[C@H]3C[C@@](C)(O)[C@@H](OC(=O)CC)[C@H](C)O3)[C@H](N(C)C)[C@H]2O)[C@H]1OC` [Midecamycin], under setting [1], the viability at 50 µM worked out at 54%.

Take `Cc1c(O)cccc1C(=O)N[C@@H](CSc1ccccc1)[C@H](O)CN1C[C@H]2CCCC[C@H]2C[C@H]1C(=O)NC(C)(C)C` [Nelfinavir mesylate]: the viability at 50 µM under setting [1] worked out at 66%.

For the compound `Cc1ccnc2c1NC(=O)c1cccnc1N2C1CC1` [Nevirapine], the viability at 50 µM amounted to 51% under setting [4] and 51% under setting [1]. Where the note is “7 days”, the “activity” value is “good activity”.

`O=C(N/N=C/c1ccc([N+](=O)[O-])o1)c1cc([N+](=O)[O-])cc([N+](=O)[O-])c1O` [Nifursol]: the viability at 50 µM under setting [1] was determined as 51%.

On to `O=[N+]([O-])c1ccc(O)c2ncccc12` [Nitroxoline (8-hydroxy 5-nitroquinoline), 8-hydroxy 5-nitroquinoline], for which the viability at 50 µM under setting [1] is 66%.

Consider `C[C@@H]1[C@H](O)[C@@H](C)/C=C/C=C/CC/C=C/C=C/C=C/C=C/C(O[C@H]2O[C@H](C)[C@@H](O)[C@H](N)[C@@H]2O)CC2O[C@](O)(CC(O)C(O)CCC(O)CC(O)CC(O)CC(=O)O[C@H]1C)CC(O)C2C(=O)O` (some centres unmarked) [Nystatin], for which the “Residual viable cells (SYBR Green/PI)” value (Table 1, drugs 50 μM, 7 day old stationary phase cells treated for 7 days) is recorded as 64%. Under setting [2], the “Residual viable cells (SYBR/PI)” value is given as 64%. Moreover, the “activity” value (7 days) is “reasonable activity”.

Regarding `COC(=O)Nc1nc2ccc([S+]([O-])c3ccccc3)cc2[nH]1` (centres unmarked) [Oxfendazole], the viability at 50 µM came to 54% under setting [4] and 54% under setting [1].

`CCCOc1ccc2nc(NC(=O)OC)[nH]c2c1` [Oxibendazole]: the viability at 50 µM runs as follows: under setting [4], 51%; under setting [1], 51%.
